# According to patent US20080261824A1, “Rationale, methods, and assays for identifying novel taste cell genes and salty taste receptor targets and assays using these identified genes or gene products” (Senomyx, Inc., priority 2006, published 2008):
# Tests used:
# [1] = tested on: perceived human salt intensity; test: inventors' test of perceived human salt intensity; format: in vivo
# Excerpt: Unlike other mammals, amiloride has been reported to only slightly reduce the intensity of sodium chloride taste, i.e., by about 15-20% when used at concentrations that specifically modulate ENaC function (Halpern, B. P. (1998) Neuroscience and Behavioral Reviews. 23: 5-47). […] Thus, additional non-ENaC genes are likely involved in human salt taste.
# sodium chloride taste = details: concentrations that specifically modulate ENaC function; cited from earlier work
SMILES,"effect on perceived human salt intensity ([1]; tested at 3000-fold above IC50 for alpha beta gamma ENaC (100-fold over IC50 for delta beta gamma ENaC), levels printed for benzamil)",effect on perceived human salt intensity ([1]; tested at 300-fold above IC50 for alpha beta gamma ENaC (10-fold over IC50 for delta beta gamma ENaC)),reduction of the intensity of sodium chloride taste (sodium chloride taste)
NC(=Nc1ccccc1)NC(=O)c1nc(Cl)c(N)nc1N [phenamil],did not elicit a significant effect,,
N=C(N)NC(=O)c1nc(Cl)c(N)nc1N [amiloride],,did not elicit a significant effect,15-20%
